Literature values as cited in US20230137840A1, “MINT MASK AND METHODS OF USE THEREOF” (Georgetown University, priority 2016, published 2023).

Columns and labels:
asthmatics = settings: nebulized, 10 mg twice daily for four weeks; 23 asthmatics
[1] = system: patients with chronic cough; settings: menthol inhalation
nasal resistance = settings: several studies
[2] = target: transient receptor potential ankyrin 1 (TRPA1) (Homo sapiens, UniProt O75762); settings: irritant-sensing channel
chemical irritants = settings: menthol vapor; irritants including acrolein, acetic acid, cyclohexanone
bronchoconstriction = settings: guinea pigs
[3] = system: cough after fiberoptic bronchoscopy; settings: premedication with 1% menthol inhalation
[4] = target: transient receptor potential melastatin 8 (TRPM8) (Homo sapiens, UniProt Q7Z2W7); settings: present in cold-sensitive sensory neurons
transient receptor potential melastatin 8 (TRPM8), sequence (Q7Z2W7 whole entry, species assumed): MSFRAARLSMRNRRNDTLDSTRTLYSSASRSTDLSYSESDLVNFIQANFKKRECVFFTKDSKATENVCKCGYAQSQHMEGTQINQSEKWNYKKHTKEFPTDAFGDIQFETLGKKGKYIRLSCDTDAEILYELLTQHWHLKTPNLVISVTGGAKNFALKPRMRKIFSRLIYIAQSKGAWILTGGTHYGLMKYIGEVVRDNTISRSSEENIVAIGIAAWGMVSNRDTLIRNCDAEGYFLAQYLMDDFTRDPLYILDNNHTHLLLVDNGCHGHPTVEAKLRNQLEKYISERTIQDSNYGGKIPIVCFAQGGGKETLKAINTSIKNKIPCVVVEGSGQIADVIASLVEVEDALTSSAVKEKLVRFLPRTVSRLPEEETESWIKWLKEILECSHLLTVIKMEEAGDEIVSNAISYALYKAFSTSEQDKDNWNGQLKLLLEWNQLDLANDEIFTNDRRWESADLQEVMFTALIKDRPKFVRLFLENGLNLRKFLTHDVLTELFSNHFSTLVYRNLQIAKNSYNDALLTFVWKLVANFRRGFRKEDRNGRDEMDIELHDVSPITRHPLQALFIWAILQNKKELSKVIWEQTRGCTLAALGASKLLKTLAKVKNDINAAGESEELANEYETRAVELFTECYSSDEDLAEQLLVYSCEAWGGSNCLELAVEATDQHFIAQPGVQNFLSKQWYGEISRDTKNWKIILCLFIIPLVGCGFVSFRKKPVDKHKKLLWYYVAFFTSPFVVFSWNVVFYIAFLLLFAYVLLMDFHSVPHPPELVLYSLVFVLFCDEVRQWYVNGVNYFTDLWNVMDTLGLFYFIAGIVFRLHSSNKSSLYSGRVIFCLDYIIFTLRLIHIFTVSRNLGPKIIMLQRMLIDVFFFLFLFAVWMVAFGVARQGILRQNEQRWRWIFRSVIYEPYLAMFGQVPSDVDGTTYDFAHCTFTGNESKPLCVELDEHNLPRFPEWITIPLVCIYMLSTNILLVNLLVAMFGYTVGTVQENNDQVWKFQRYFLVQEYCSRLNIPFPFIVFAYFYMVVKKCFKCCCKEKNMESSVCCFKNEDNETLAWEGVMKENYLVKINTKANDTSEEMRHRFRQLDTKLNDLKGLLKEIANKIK

[5] = system: upper airway resistance in normal subjects; settings: inhaled; ten normal subjects
cough = settings: guinea pigs
cough reflex = settings: menthol vapor; taste of sucrose

transient receptor potential ankyrin 1 (TRPA1), sequence (O75762 whole entry, species assumed): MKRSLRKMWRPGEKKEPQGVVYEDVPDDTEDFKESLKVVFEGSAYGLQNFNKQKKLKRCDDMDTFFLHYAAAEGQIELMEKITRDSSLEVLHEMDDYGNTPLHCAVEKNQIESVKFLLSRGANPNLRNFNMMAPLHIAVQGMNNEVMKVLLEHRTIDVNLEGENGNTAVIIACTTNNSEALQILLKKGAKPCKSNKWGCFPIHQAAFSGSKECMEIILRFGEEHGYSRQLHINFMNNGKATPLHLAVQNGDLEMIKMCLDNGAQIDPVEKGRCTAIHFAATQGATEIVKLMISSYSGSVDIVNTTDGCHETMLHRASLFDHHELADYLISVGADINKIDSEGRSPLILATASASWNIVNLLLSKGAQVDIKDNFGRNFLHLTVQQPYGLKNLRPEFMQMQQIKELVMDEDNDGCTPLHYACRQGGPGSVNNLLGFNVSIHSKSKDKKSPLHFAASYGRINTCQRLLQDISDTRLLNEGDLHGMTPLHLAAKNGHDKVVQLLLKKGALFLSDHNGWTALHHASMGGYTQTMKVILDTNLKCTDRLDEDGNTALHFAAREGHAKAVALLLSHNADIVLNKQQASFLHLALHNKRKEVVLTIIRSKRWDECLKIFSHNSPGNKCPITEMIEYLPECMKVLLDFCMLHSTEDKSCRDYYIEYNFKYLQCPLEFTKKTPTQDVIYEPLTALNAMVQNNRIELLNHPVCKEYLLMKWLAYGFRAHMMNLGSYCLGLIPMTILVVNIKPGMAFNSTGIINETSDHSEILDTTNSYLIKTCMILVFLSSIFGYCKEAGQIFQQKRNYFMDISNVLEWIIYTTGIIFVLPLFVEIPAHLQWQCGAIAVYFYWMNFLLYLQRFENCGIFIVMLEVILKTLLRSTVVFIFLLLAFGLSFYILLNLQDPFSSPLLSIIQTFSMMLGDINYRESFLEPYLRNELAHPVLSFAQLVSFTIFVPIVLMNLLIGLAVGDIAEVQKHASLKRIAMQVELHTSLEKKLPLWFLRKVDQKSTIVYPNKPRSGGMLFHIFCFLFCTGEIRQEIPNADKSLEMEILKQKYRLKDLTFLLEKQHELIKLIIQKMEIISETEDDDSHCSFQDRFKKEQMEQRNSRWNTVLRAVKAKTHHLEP

Row | SMILES | diurnal variation in peak expiratory flow rate (PEER) (asthmatics) | effect on FEV1 (forced expiratory volume at 1 second) (asthmatics) | effect on VC (vital capacity) (asthmatics) | use of metered dose inhalers (asthmatics) | wheezing episodes (asthmatics) | bronchial contraction due to high extracellular potassium (bronchial smooth muscle) | bronchial contraction due to methacholine (bronchial smooth muscle) | cough sensitivity to inhaled capsaicin [1] | effect on inspiratory flows [1] | effect on nasal resistance (nasal resistance) | interaction with TRPA1 [2] | relaxation of bronchi preconstricted with acetylcholine or potassium chloride (bronchi) | reactivity to chemical irritants (chemical irritants) | capsaicin-induced bronchoconstriction (bronchoconstriction) | neurokinin A-induced bronchoconstriction (bronchoconstriction) | effect on cough after fiberoptic bronchoscopy [3] | interaction with TRPM8 [4] | effect on upper airway resistance [5] | antitussive (cough suppressant) effect (cough) | cough reflex to capsaicin challenge (cough reflex)
1 | CC(C)[C@@H]1CC[C@@H](C)C[C@H]1O [menthol, (1R,2S,5R)-2-Isopropyl-5-methylcyclohexanol] | decreased | no effect | no effect | reduced use | reduced wheezing episodes | inhibits | inhibits | reduced cough sensitivity | had an effect | no effect | interacts | relaxes | reduces reactivity | attenuates | attenuates | no effect | interacts | no effect | antitussive (cough suppressant) effects | reduced cough reflex
2 | OC[C@H]1O[C@@](CO)(O[C@H]2O[C@H](CO)[C@@H](O)[C@H](O)[C@H]2O)[C@@H](O)[C@@H]1O [sucrose] | – | – | – | – | – | – | – | – | – | – | – | – | – | – | – | – | – | – | – | reduced cough reflex
